Reference: US11292788B2, “IL-17 and IFN-gamma inhibition for the treatment of autoimmune diseases and chronic inflammation” (Immunic AG, priority 2017, dated 2022)
Like-named read-outs stand apart in the source and are kept apart here.

What was measured:
Type in all cases: cell-based
IL-17F = test: Cytokine assay: IL-17F production by human PBMC stimulated with PHA; settings: IC50 class, read-out: IL-17F Inhib.
Protocol: (§1) Cytokine Assay: Analysis of Proliferation of and Cytokine Production by Human PBMC Stimulated with PHA
(§2) Peripheral blood mononuclear cells (PBMC) from healthy human donors were purified using Accuspin™ System-Histopaque-1077 (Sigma) according to the protocol recommended by the manufacturer. Purified PBMC were then washed twice with phosphate-buffered saline (PBS) and resuspended in RPMI1640 culture medium supplemented with 10% dialyzed heat inactivated fetal calf serum, 1.5 mM L-glutamine, 100 U penicillin/ml, and […] (all from PAN Biotech, Aidenbach, Germany). For stimulation, PBMC were seeded at 1×10^5 cells/well, activated with 2 μg/ml phytohaemagglutinin (PHA, Sigma) and incubated with the test compounds for 48 hours. IL-17A, IL-17F and INF-γ were then determined in the culture supernatant using a Luminex BioPlex system, following the manufacturer's instructions (BioRad, Munich, Germany). For screening, compounds were used at 10, 1, 0.1 and 0.01 μM. To determine the IC50, compounds were titrated semilogarithmically.
(§3) Cytokines were determined in the aforementioned culture supernatant using the following methods: IL-17A was measured using the human homodimer IL-17A ELISA Ready Set Go Kit from eBioscience (Frankfurt, Germany); IL-17F using the human IL-17F ELI-Pair from Hölzel DiagnosticaGmBH (Köln, Germany); and IFN-γ using the OptEIA human IFN-g ELISA from BD Bioscience (Heidelberg, Germany), all following the manufacturer's instructions.

INF-γ = test: Cytokine assay: INF-γ production by human PBMC stimulated with PHA; settings: IC50 class, read-out: IFN-gamma Inhib.
Protocol: as §1, §2, §3

IL-17A = test: Cytokine assay: IL-17A production by human PBMC stimulated with PHA; settings: IC50 class, read-out: IL-17A Inhib.
Protocol: as §1, §2, §3

SMILES | IC50 (IL-17F; Homo sapiens, PBMC) [nM] | IC50 (INF-γ; Homo sapiens, PBMC) [nM] | IC50 (IL-17A; Homo sapiens, PBMC) [nM] | IC50 (IL-17F) [nM] | IC50 (INF-γ) [nM] | IC50 (IL-17A) [nM]
COc1cccc(-c2noc(-c3cnn(CCC(C)(C)O)c3C(F)(F)F)c2COC2CC2)c1Cl [Example 91, 4-{4-[3-(2-chloro-3-methoxyphenyl)-4-(cyclopropoxymethyl)-1,2-oxazol-5-yl]-5-(trifluoromethyl)-1H-pyrazol-1-yl}-2-methylbutan-2-ol] | < 50 | < 50 | < 50 | – | – | –
COCc1c(-c2c(F)cccc2Cl)noc1-c1cnn([C@H]2C[C@](C)(O)C2)c1C [Example 71, 3-{4-[3-(2-chloro-6-fluorophenyl)-4-(methoxymethyl)-1,2-oxazol-5-yl]-5-methyl-1H-pyrazol-1-yl}-1-methylcyclobutan-1-ol] | 500 to 5000 | 500 to 5000 | – | – | – | –
CCNC(=O)c1cccc(-c2noc(-c3cnn(C[C@@H](C)O)c3C(F)(F)F)c2-c2ccncn2)c1OC [Example 165, (R)—N-ethyl-3-(5-(1-(2-hydroxypropyl)-5-(trifluoromethyl)-1H-pyrazol-4-yl)-4-(pyrimidin-4-yl)isoxazol-3-yl)-2-methoxybenzamide] | ≥ 5000 | 500 to 5000 | 500 to 5000 | – | – | –
CC(C)(O)CCn1ncc(-c2onc(-c3ccccc3Cl)c2-c2ncccn2)c1C(F)(F)F [Example 122, 4-{4-[3-(2-chlorophenyl)-4-(pyrimidin-2-yl)-1,2-oxazol-5-yl]-5-(trifluoromethyl)-1H-pyrazol-1-yl}-2-methylbutan-2-ol] | < 50 | < 50 | < 50 | – | – | –
CC(C)(O)CCn1ncc(-c2onc(-c3cccc(OCCCN4CCCC4)c3Cl)c2-c2ncccn2)c1C(F)(F)F [Example 142, 4-[4-(3-{2-chloro-3-[3-(pyrrolidin-1-yl)propoxy]phenyl}-4-(pyrimidin-2-yl)-1,2-oxazol-5-yl)-5-(trifluoromethyl)-1H-pyrazol-1-yl]-2-methylbutan-2-ol] | 50 to 500 | 50 to 500 | 50 to 500 | – | – | –
C[C@]1(O)C[C@@H](n2ncc(-c3onc(-c4c(F)cccc4Cl)c3-c3ccncn3)c2C(F)(F)F)C1 [Example 105, 3-{4-[3-(2-chloro-6-fluorophenyl)-4-(pyrimidin-4-yl)-1,2-oxazol-5-yl]-5-(trifluoromethyl)-1H-pyrazol-1-yl}-1-methylcyclobutan-1-ol] | – | – | – | 50 to 500 | 50 to 500 | 500 to 5000
COCC(=O)c1c(-c2c(F)cccc2Cl)noc1-c1cnn(CC(C)(C)O)c1C(F)(F)F [Example 39, 1-[3-(2-chloro-6-fluorophenyl)-5-[1-(2-hydroxy-2-methylpropyl)-5-(trifluoromethyl)-1H-pyrazol-4-yl]-1,2-oxazol-4-yl]-2-methoxyethan-1-one] | ≥ 5000 | 500 to 5000 | 500 to 5000 | – | – | –
COc1c(C(=O)NC2CCC2)cccc1-c1noc(-c2cnn(C[C@@H](C)O)c2C(F)(F)F)c1-c1ccncn1 [Example 164, (R)—N-cyclobutyl-3-(5-(1-(2-hydroxypropyl)-5-(trifluoromethyl)-1H-pyrazol-4-yl)-4-(pyrimidin-4-yl)isoxazol-3-yl)-2-methoxybenzamide] | 500 to 5000 | 500 to 5000 | 500 to 5000 | – | – | –
Cc1c(-c2onc(-c3c(F)cccc3Cl)c2C(=O)OC2CC2)cnn1[C@H]1C[C@@](C)(O)C1 [Example 62, cyclopropyl 3-(2-chloro-6-fluorophenyl)-5-{5-methyl-1-[3-hydroxy-3-methylcyclobutyl]-1H-pyrazol-4-yl}-1,2-oxazole-4-carboxylate] | – | – | – | – | – | < 50
COc1ccccc1-c1noc(-c2cnn(CC(C)(C)O)c2C(F)(F)F)c1-c1ccncn1 [Example 116, 1-{4-[3-(2-methoxyphenyl)-4-(pyrimidin-4-yl)-1,2-oxazol-5-yl]-5-(trifluoromethyl)-1H-pyrazol-1-yl}-2-methylpropan-2-ol] | ≥ 5000 | 500 to 5000 | ≥ 5000 | – | – | –
COCc1c(-c2c(F)cccc2Cl)noc1-c1cnn([C@H]2C[C@@](C)(O)C2)c1C [Example 70, 3-{4-[3-(2-chloro-6-fluorophenyl)-4-(methoxymethyl)-1,2-oxazol-5-yl]-5-methyl-1H-pyrazol-1-yl}-1-methylcyclobutan-1-ol] | 500 to 5000 | 500 to 5000 | – | – | – | –
COc1cccc(-c2noc(-c3cnn(C[C@@H](C)O)c3C(F)(F)F)c2-c2ncccn2)c1Cl [Example 117, (2R)-1-{4-[3-(2-chloro-3-methoxyphenyl)-4-(pyrimidin-2-yl)-1,2-oxazol-5-yl]-5-(trifluoromethyl)-1H-pyrazol-1-yl}propan-2-ol] | 500 to 5000 | 50 to 500 | 500 to 5000 | – | – | –
Cc1c(-c2onc(-c3ccccc3Cl)c2C(=O)OC2COC2)cnn1C[C@H](C)O [Example 47, oxetan-3-yl 3-(2-chlorophenyl)-5-{1-[(2S)-2-hydroxypropyl]-5-methyl-1H-pyrazol-4-yl}-1,2-oxazole-4-carboxylate] | 50 to 500 | 50 to 500 | 50 to 500 | – | – | –
COC(=O)c1c(-c2cccc(OCCN(C)C)c2Cl)noc1-c1cnn(C[C@H](C)O)c1C(F)(F)F [Example 149, methyl 3-{2-chloro-3-[2-(dimethylamino)ethoxy]phenyl}-5-{1-[(2S)-2-hydroxypropyl]-5-(trifluoromethyl)-1H-pyrazol-4-yl}-1,2-oxazole-4-carboxylate] | 500 to 5000 | 50 to 500 | 50 to 500 | – | – | –
COC(=O)c1c(-c2ccccc2Cl)noc1-c1cnn([C@H]2C[C@](C)(O)C2)c1C [Example 17, methyl 3-(2-chlorophenyl)-5-(1-(3-hydroxy-3-methylcyclobutyl)-5-methyl-1H-pyrazol-4-yl)isoxazole-4-carboxylate] | – | – | – | 500 to 5000 | 500 to 5000 | 500 to 5000
C[C@@H](O)Cn1ncc(-c2onc(-c3c(F)cccc3Cl)c2C(=O)NC2CC2)c1C(F)(F)F [Example 45, 3-(2-chloro-6-fluorophenyl)-N-cyclopropyl-5-(1-((2R)-2-hydroxypropyl)-5-(trifluoromethyl)-1H-pyrazol-4-yl)isoxazole-4-carboxamide] | 500 to 5000 | 500 to 5000 | 500 to 5000 | – | – | –
CCOC(=O)c1c(-c2c(F)cccc2Cl)noc1-c1cnn([C@H]2C[C@@](C)(O)C2)c1C(F)(F)F [Example 11, ethyl 3-(2-chloro-6-fluorophenyl)-5-[1-(3-hydroxy-3-methylcyclobutyl)-5-(trifluoromethyl)-1H-pyrazol-4-yl]-1,2-oxazole-4-carboxylate] | – | – | – | – | – | < 50
Cc1c(-c2onc(-c3c(F)cccc3Cl)c2COC2CC2)cnn1[C@H]1C[C@](C)(O)C1 [Example 84, 3-{4-[3-(2-chloro-6-fluorophenyl)-4-(cyclopropoxymethyl)-1,2-oxazol-5-yl]-5-methyl-1H-pyrazol-1-yl}-1-methylcyclobutan-1-ol] | 50 to 500 | 50 to 500 | 50 to 500 | – | – | –
COC(=O)c1c(-c2c(F)cccc2Cl)noc1-c1cnn(C2CC(O)C2)c1C(F)(F)F (stereo not drawn) [Example 28, methyl 3-(2-chloro-6-fluorophenyl)-5-(1-(3-hydroxycyclobutyl)-5-(trifluoromethyl)-1H-pyrazol-4-yl)isoxazole-4-carboxylate] | 500 to 5000 | 500 to 5000 | 500 to 5000 | – | – | –
COCc1c(-c2ccccc2Cl)noc1-c1cnn([C@H]2C[C@@](C)(O)C2)c1C [Example 72, 3-{4-[3-(2-chlorophenyl)-4-(methoxymethyl)-1,2-oxazol-5-yl]-5-methyl-1H-pyrazol-1-yl}-1-methylcyclobutan-1-ol] | 50 to 500 | < 50 | 50 to 500 | – | – | –
CCNC(=O)c1cccc(-c2noc(-c3cnn(C[C@@H](C)O)c3C(F)(F)F)c2-c2ccncn2)c1Cl [Example 156, (R)-2-chloro-N-ethyl-3-(5-(1-(2-hydroxypropyl)-5-(trifluoromethyl)-1H-pyrazol-4-yl)-4-(pyrimidin-4-yl)isoxazol-3-yl)benzamide] | ≥ 5000 | 500 to 5000 | ≥ 5000 | – | – | –
CC(C)(O)Cn1ncc(-c2onc(-c3c(F)cccc3Cl)c2C(=O)NC2CCCC2)c1C(F)(F)F [Example 41, 3-(2-chloro-6-fluorophenyl)-N-cyclopentyl-5-(1-(2-hydroxy-2-methylpropyl)-5-(trifluoromethyl)-1H-pyrazol-4-yl)isoxazole-4-carboxamide] | ≥ 5000 | ≥ 5000 | ≥ 5000 | – | – | –
COc1c(C(=O)NC(C)C)cccc1-c1noc(-c2cnn(C[C@@H](C)O)c2C(F)(F)F)c1-c1ccncn1 [Example 162, (R)-3-(5-(1-(2-hydroxypropyl)-5-(trifluoromethyl)-1H-pyrazol-4-yl)-4-(pyrimidin-4-yl)isoxazol-3-yl)-N-isopropyl-2-methoxybenzamide] | ≥ 5000 | 50 to 500 | 500 to 5000 | – | – | –
COC(=O)c1c(-c2ccccc2Cl)noc1-c1cnn(C[C@H](C)O)c1C [Example 24, methyl (S)-3-(2-chlorophenyl)-5-(1-(2-hydroxypropyl)-5-methyl-1H-pyrazol-4-yl)isoxazole-4-carboxylate] | 50 to 500 | 50 to 500 | 500 to 5000 | – | – | –
